Measurements published in patent US12077503B2, “Substituted cyclic amides and their use as herbicides” (FMC CORPORATION, priority 2015, dated 2024).

Key:
Type in all cases: in vivo
Kochia (Kochia scoparia) [1] = experiment: Test A preemergence; settings: Bassia scoparia, pre-emergence, 240 h, Preemergence
Summary of the method: (§1)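 In a loam soil and sand blend, planted seeds got a preemergence directed soil spray, and young plants at the one- to two-leaf stage, 2–10 cm high, got a postemergence application; ~10 d greenhouse hold; injury rated visually, 0 = none, 100 = complete control.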

[2] = system: barnyardgrass (Echinochloa crus-galli); experiment: Test A preemergence; settings: Echinochloa crus-galli, pre-emergence, 240 h, Preemergence
Summary of the method: as §1

[3] = system: giant foxtail (Setaria faberii); experiment: Test A preemergence; settings: Setaria faberi, pre-emergence, 240 h, Preemergence
Summary of the method: as §1

[4] = system: pigweed (Amaranthus retroflexus); experiment: Test A preemergence; settings: Amaranthus retroflexus, pre-emergence, 240 h, Preemergence
[5] = system: ragweed (common ragweed, Ambrosia elatior); experiment: Test A preemergence; settings: Ambrosia artemisiifolia, pre-emergence, 240 h, Preemergence
Summary of the method: as §1

[6] = system: ryegrass, Italian (Italian ryegrass, Lolium multiflorum); experiment: Test A preemergence; settings: Lolium multiflorum, pre-emergence, 240 h, Preemergence
Summary of the method: as §1

[7] = system: Galium (catchweed bedstraw, Galium aparine); experiment: Test A postemergence; settings: Galium, post-emergence, 240 h, Postemergence, read-out: Plant response rating, Galium
Summary of the method: as §1

Kochia (Kochia scoparia) [8] = experiment: Test A postemergence; settings: Bassia scoparia, post-emergence, 240 h, Postemergence, read-out: Plant response rating, Kochia
Summary of the method: as §1

[9] = system: barnyardgrass (Echinochloa crus-galli); experiment: Test A postemergence; settings: Echinochloa crus-galli, post-emergence, 240 h, Postemergence, read-out: Plant response rating, Barnyardgrass
Summary of the method: as §1

[10] = system: blackgrass (Alopecurus myosuroides); experiment: Test A postemergence; settings: Alopecurus myosuroides, post-emergence, 240 h, Postemergence, read-out: Plant response rating, Blackgrass
Summary of the method: as §1

corn (Zea mays) = experiment: Test A postemergence; settings: Zea mays, post-emergence, 240 h, Postemergence
Summary of the method: as §1

[11] = system: giant foxtail (Setaria faberii); experiment: Test A postemergence; settings: Setaria faberi, post-emergence, 240 h, Postemergence, read-out: Plant response rating, Foxtail, Giant
Summary of the method: as §1

[12] = system: pigweed (Amaranthus retroflexus); experiment: Test A postemergence; settings: Amaranthus retroflexus, post-emergence, 240 h, Postemergence, read-out: Plant response rating, Pigweed
Summary of the method: as §1

[13] = system: ragweed (common ragweed, Ambrosia elatior); experiment: Test A postemergence; settings: Ambrosia artemisiifolia, post-emergence, 240 h, Postemergence, read-out: Plant response rating, Ragweed
Summary of the method: as §1

[14] = system: ryegrass, Italian (Italian ryegrass, Lolium multiflorum); experiment: Test A postemergence; settings: Lolium multiflorum, post-emergence, 240 h, Postemergence, read-out: Plant response rating, Ryegrass, Italian
Summary of the method: as §1

[15] = system: wheat (Triticum aestivum); experiment: Test A postemergence; settings: Triticum aestivum, post-emergence, 240 h, Postemergence, read-out: Plant response rating, Wheat
Summary of the method: as §1

[16] = system: barnyardgrass (Echinochloa crus-galli); experiment: Test B flooded paddy test; settings: Echinochloa crus-galli, 250 g ai/ha, Flood; 0 to 100 scale where 0 is no effect and 100 is complete control; read-out: Barnyardgrass plant response rating
Summary of the method: (§2)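 Plants at 2-leaf stage flooded to 3 cm above soil, with compounds applied directly to paddy water and that depth maintained. Plants kept in greenhouse 13–15 d. Visual rating versus controls on a 0 (no effect) to 100 (complete control) scale.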

[17] = system: ducksalad (Heteranthera limosa); experiment: Test B flooded paddy test; settings: Heteranthera limosa, 250 g ai/ha, Flood; 0 to 100 scale where 0 is no effect and 100 is complete control; read-out: Ducksalad plant response rating
Summary of the method: as §2

rice (Oryra sativa) = experiment: Test B flooded paddy test; settings: Oryza sativa, 250 g ai/ha, Flood; 0 to 100 scale where 0 is no effect and 100 is complete control; read-out: Rice plant response rating
Summary of the method: as §2

[18] = system: sedge, umbrella (small-flower umbrella sedge, Cyperus difformis); experiment: Test B flooded paddy test; settings: Cyperus difformis, 250 g ai/ha, Flood; 0 to 100 scale where 0 is no effect and 100 is complete control; read-out: Sedge, Umbrella plant response rating
Summary of the method: as §2

[19] = 125 g ai/ha, visual injury after approximately 10 d, 0 to 100 scale where 0 is no effect and 100 is complete control
[20] = 31 g ai/ha, visual injury after approx. 10 d, 0 to 100 scale, 0 no effect, 100 complete control

CN1CC[C@H](c2ccccc2C(F)(F)F)[C@@H](C(=O)Nc2ccc(F)c(F)c2F)C1=O [Compound 1010]
0%: pest or weed control at 31 g/ha (Kochia (Kochia scoparia) [1]; 31 g ai/ha, 0 to 100 scale where 0 is no effect and 100 is complete control, read-out: Kochia plant response rating) | pest or weed control at 125 g/ha (Kochia (Kochia scoparia) [1]; 125 g ai/ha, visual injury rating after approximately 10 d, read-out: Kochia plant response rating (0 to 100 scale, 0 is no effect, 100 is complete control)) | pest or weed control at 125 g/ha ([2]; 125 g ai/ha, visual injury rating after approximately 10 d, read-out: Barnyardgrass plant response rating (0 to 100 scale, 0 is no effect, 100 is complete control)) | pest or weed control at 31 g/ha ([2]; 31 g ai/ha, 0 to 100 scale (0 no effect, 100 complete control), read-out: Plant response rating, Barnyardgrass) | pest or weed control at 125 g/ha ([3]; 125 g ai/ha, visual injury rating after approximately 10 d, read-out: Foxtail, Giant plant response rating (0 to 100 scale, 0 is no effect, 100 is complete control)) | pest or weed control at 31 g/ha ([3]; 31 g ai/ha, 0 to 100 scale (0 no effect, 100 complete control), read-out: Plant response rating, Foxtail, Giant) | pest or weed control at 31 g/ha ([4]; 31 g ai/ha, 0 to 100 scale where 0 is no effect and 100 is complete control, read-out: Pigweed plant response rating) | pest or weed control at 125 g/ha ([4]; 125 g ai/ha, visual injury rating after approximately 10 d, read-out: Pigweed plant response rating (0 to 100 scale, 0 is no effect, 100 is complete control)) | pest or weed control at 31 g/ha ([5]; 31 g ai/ha, 0 to 100 scale where 0 is no effect and 100 is complete control, read-out: Ragweed plant response rating) | pest or weed control at 125 g/ha ([5]; 125 g ai/ha, visual injury rating after approximately 10 d, read-out: Ragweed plant response rating (0 to 100 scale, 0 is no effect, 100 is complete control)) | pest or weed control at 31 g/ha ([6]; 31 g ai/ha, 0 to 100 scale where 0 is no effect and 100 is complete control, read-out: Ryegrass, Italian plant response rating) | pest or weed control at 125 g/ha ([6]; 125 g ai/ha, visual injury rating after approximately 10 d, read-out: Ryegrass, Italian plant response rating (0 to 100 scale, 0 is no effect, 100 is complete control)) | pest or weed control at 125 g/ha [7, 19] | pest or weed control at 31 g/ha [7, 20] | pest or weed control at 125 g/ha (Kochia (Kochia scoparia) [8]; [19]) | pest or weed control at 31 g/ha (Kochia (Kochia scoparia) [8]; [20]) | pest or weed control at 125 g/ha [9, 19] | pest or weed control at 31 g/ha [9, 20] | pest or weed control at 125 g/ha [10, 19] | pest or weed control at 31 g/ha [10, 20] | Corn plant response rating (crop injury, 0 = no effect, 100 = complete kill) at 125 g/ha (corn (Zea mays); [19]) | Corn plant response rating (crop injury, 0 = no effect, 100 = complete kill) at 31 g/ha (corn (Zea mays); [20]) | pest or weed control at 125 g/ha [11, 19] | pest or weed control at 31 g/ha [11, 20] | pest or weed control at 125 g/ha [12, 19] | pest or weed control at 31 g/ha [12, 20] | pest or weed control at 125 g/ha [13, 19] | pest or weed control at 31 g/ha [13, 20] | pest or weed control at 125 g/ha [14, 19] | pest or weed control at 31 g/ha [14, 20] | plant injury at 125 g/ha [15, 19] | plant injury at 31 g/ha [15, 20] | pest or weed control at 250 g/ha [16] | pest or weed control at 250 g/ha [17] | pest or weed control at 250 g/ha (rice (Oryra sativa)) | pest or weed control at 250 g/ha [18]
